Measured values from publication PMC6778101 (Nature Communications, 2019).
Ends that are not written are not given here. Peptide text beside a SMILES is read from it.

Key:
[1] = tested on: E. coli K-12 BW25113 carrying ASKA plasmids; assay: microbe, parasite or virus in culture; type: cell-based, Escherichia coli; settings: for MIC fold change: MIC of ASKA pooled library / MIC of E.coli carrying empty ASKA plasmid; for Average fold change of the 3 replicates (MIC pooled ASKA library / MIC empty plasmid): mean of three biological replicates; for MIC value of E. coli K-12 BW25113 carrying the empty plasmid of the ASKA library / MIC value of E. coli K-12 BW25113 carrying the pooled plasmids of the ASKA library: MS medium + 10 µg mL−1 CHL + 500 µM IPTG, 5 × 10^5 cells, 16–18 h, 37 °C
Procedure, shortened: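 E. coli BW25113 transformed with the pooled ASKA ORF overexpression library, or empty-vector control, grown with CHL, induced with IPTG.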

[2] = tested on: E. coli K-12 BW25113; assay: microbe, parasite or virus in culture; type: cell-based, Escherichia coli; settings: for MIC in 30 °C / MIC in 37 °C: strain not given; for MIC: starting wild-type strain of the evolution experiment, broth dilution, MS medium, 5 × 10^5 cells/mL, 30 °C, 24 h, MIC = OD600 < 0.05
[3] = replicate 1 (first line per drug)
[4] = replicate 2 (second line per drug)
[5] = replicate 3 (third line per drug)

Molecule	MIC fold change [1, 3]	MIC fold change [1, 4]	MIC fold change [1, 5]	Average fold change of the 3 replicates (MIC pooled ASKA library / MIC empty plasmid) [1]	MIC in 30 °C ([2]; incubation time 24 hour) [µg/mL]	MIC in 37 °C ([2]; incubation time 24 hour) [µg/mL]	MIC in 30 °C ([2]; incubation time 48 hour) [µg/mL]	MIC in 37 °C ([2]; incubation time 48 hour) [µg/mL]	MIC in 30 °C ([2]; incubation time 72 hour) [µg/mL]	MIC in 37 °C ([2]; incubation time 72 hour) [µg/mL]	MIC value of E. coli K-12 BW25113 carrying the empty plasmid of the ASKA library ([1]; Replicate 1) [µg/mL]	MIC value of E. coli K-12 BW25113 carrying the pooled plasmids of the ASKA library ([1]; Replicate 1) [µg/mL]	MIC value of E. coli K-12 BW25113 carrying the empty plasmid of the ASKA library ([1]; Replicate 2) [µg/mL]	MIC value of E. coli K-12 BW25113 carrying the pooled plasmids of the ASKA library ([1]; Replicate 2) [µg/mL]	MIC value of E. coli K-12 BW25113 carrying the empty plasmid of the ASKA library ([1]; Replicate 3) [µg/mL]	MIC value of E. coli K-12 BW25113 carrying the pooled plasmids of the ASKA library ([1]; Replicate 3) [µg/mL]	MIC [2] [µg/mL]	MM (median of MICs) ([2]; median of MICs in E. coli K12) [µg/mL]
CC[C@H](C)[C@@H]1NC(=O)CNC(=O)[C@H](CCCNC(=N)N)NC(=O)[C@H](Cc2ccc(O)cc2)NC(=O)[C@@H]2CSSC[C@H](NC1=O)C(=O)N[C@@H](Cc1ccc(O)cc1)C(=O)N[C@@H](CCCNC(=N)N)C(=O)N[C@@H](CCCCN)C(=O)N[C@H](C(=O)N[C@@H](CCCNC(=N)N)C(N)=O)CSSC[C@H](NC(=O)[C@H](Cc1c[nH]c3ccccc13)NC(=O)[C@@H](N)CCCNC(=N)N)C(=O)N[C@@H](Cc1ccccc1)C(=O)N[C@@H](CCCNC(=N)N)C(=O)N[C@@H](C(C)C)C(=O)N2 [TPII, tachyplesin II] (HELM PEPTIDE1{R.W.C.F.R.V.C.Y.R.G.I.C.Y.R.K.C.R.[am]}$PEPTIDE1,PEPTIDE1,3:R3-16:R3|PEPTIDE1,PEPTIDE1,7:R3-12:R3$$$V2.0; N-terminus and C-terminus assumed; bridges inferred)	1	1	1	1.00	5	5	5	6	6	6								
NC[C@H]1O[C@H](O[C@H]2[C@H](O)[C@@H](O[C@H]3O[C@H](CO)[C@@H](O)[C@H](N)[C@H]3O)[C@H](N)C[C@@H]2N)[C@H](O)[C@@H](O)[C@@H]1O [KAN, Kanamycin]	1.3	1.3	1.69	1.43							9.65	12.55	7.43	9.65	7.43	12.55	8	
SWLSKTAKKLENSAKKRISEGIAIAIQGGPR [CP1, Cecropin P1]											2.31	2.31	2.31	2.31	2.31	2.31	100	2.95
